Source: patent US9428508B2, “2,4-diamino-6,7-dihydro-5H-pyrrolo[2,3]pyrimidine derivatives as FAK/Pyk2 inhibitors” (Centaurus BioPharma Co., Ltd., priority 2011, dated 2016)
pIC50: −log10 of the molar value.

Legend:
[1] = molecular target: FAK (Homo sapiens (Human), UniProt Q05397); experiment: Biochemical assay for FAK activity (LANCE TR-FRET, ULight-poly Glu,Ala,Tyr substrate); conditions: GST-tagged FAK, 120 min reaction
Summary of the method: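 GST-tagged FAK (2.5 nM working stock) with ULight-poly Glu,Ala,Tyr (666 nM stock) and ATP (33.3 μM stock) in Tris pH 7.5/MgCl2/DTT/CHAPS buffer with BSA, 120 min; EDTA-quenched. Phosphorylation read by TR-FRET with Eu-anti-phosphotyrosine (PY20) antibody after 60 min. Compounds tested as 12-point 3-fold dilutions.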

[2] = molecular target: PYK2 (Homo sapiens (Human), UniProt Q14289); experiment: Biochemical assay for PYK2 activity (LANCE TR-FRET, ULight-poly Glu,Ala,Tyr substrate); conditions: GST-tagged PYK2, 40 min reaction
PYK2, sequence (Q14289 whole entry): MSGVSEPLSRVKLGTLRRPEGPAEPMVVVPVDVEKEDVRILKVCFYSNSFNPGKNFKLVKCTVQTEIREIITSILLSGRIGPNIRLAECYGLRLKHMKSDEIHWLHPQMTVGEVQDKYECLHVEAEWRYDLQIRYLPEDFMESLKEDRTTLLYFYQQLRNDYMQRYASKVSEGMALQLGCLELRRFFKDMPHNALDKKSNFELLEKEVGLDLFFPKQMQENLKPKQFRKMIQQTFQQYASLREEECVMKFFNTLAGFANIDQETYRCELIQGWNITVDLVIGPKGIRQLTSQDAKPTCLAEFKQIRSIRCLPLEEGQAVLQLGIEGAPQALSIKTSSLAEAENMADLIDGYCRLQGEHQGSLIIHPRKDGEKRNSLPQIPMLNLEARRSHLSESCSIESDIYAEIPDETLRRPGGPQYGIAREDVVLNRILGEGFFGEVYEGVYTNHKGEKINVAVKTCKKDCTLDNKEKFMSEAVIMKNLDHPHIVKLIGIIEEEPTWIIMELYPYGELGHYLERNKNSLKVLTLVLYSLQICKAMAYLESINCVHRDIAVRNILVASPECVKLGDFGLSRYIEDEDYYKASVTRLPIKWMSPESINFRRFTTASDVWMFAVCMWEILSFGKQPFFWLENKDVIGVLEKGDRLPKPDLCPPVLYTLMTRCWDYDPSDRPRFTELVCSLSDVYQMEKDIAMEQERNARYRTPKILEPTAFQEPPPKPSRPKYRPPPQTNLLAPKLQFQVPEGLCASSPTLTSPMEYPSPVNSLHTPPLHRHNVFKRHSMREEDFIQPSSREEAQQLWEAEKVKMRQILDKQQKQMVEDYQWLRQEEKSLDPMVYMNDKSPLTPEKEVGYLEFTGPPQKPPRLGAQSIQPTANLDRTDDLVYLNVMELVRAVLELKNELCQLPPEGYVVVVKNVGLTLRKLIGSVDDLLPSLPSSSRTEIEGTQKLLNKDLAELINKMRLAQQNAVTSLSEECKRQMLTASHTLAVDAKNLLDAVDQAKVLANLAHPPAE
Summary of the method: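 GST-tagged human PYK2 (2 nM working stock) with ULight-poly Glu,Ala,Tyr (1:1:1) peptide (666 nM working stock) and ATP (46.6 μM working stock) in 40 mM Tris pH 7.5, MgCl2, 1 mM DTT, 1 mM CHAPS; 40 min reaction, EDTA quench. Phosphotyrosine read by LANCE Eu-anti-phosphotyrosine (PY20) TR-FRET after 60 min; 12-point 3-fold compound dilutions.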

FAK, sequence (Q05397 whole entry): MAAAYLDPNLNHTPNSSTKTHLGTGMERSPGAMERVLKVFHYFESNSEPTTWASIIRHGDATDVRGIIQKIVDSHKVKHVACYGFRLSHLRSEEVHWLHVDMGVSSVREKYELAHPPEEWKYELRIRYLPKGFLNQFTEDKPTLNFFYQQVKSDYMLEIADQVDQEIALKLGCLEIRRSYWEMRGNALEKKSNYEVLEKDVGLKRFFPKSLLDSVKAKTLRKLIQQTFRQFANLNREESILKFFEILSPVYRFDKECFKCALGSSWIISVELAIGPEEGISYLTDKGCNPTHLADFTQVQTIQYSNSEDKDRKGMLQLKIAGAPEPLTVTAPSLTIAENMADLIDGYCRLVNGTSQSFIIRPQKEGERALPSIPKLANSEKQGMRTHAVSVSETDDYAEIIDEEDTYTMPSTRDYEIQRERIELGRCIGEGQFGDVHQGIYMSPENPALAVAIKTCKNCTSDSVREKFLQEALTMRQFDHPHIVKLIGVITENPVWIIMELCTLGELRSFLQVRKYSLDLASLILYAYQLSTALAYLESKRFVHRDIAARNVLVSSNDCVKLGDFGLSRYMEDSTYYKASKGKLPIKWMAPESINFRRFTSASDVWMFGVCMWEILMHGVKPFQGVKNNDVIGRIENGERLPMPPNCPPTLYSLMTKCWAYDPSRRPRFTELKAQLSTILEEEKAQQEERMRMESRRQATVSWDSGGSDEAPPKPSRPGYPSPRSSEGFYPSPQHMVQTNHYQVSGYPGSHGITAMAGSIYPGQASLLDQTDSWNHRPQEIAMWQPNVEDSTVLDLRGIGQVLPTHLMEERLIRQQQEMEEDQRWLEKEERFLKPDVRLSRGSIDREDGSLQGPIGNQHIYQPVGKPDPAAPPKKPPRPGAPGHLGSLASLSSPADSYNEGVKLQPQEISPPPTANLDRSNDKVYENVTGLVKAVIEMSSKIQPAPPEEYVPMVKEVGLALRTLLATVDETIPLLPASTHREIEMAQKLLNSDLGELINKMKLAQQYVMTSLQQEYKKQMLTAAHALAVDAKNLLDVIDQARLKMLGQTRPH

Row | Structure (SMILES) | pIC50 [1] | pIC50 [2]
1 | COCCNS(=O)(=O)c1ccccc1Nc1nc(Nc2ccc(N3CCOCC3)cc2OC)nc2c1C(C)(C)CN2 [Example 115, 2-(2-(2-methoxy-4-morpholinophenylamino)-5,5-dimethyl-6,7-dihydro-5H-pyrrolo[2,3-d]pyrimidin-4-ylamino)-N-(2-methoxyethyl)benzenesulfonamide] | > 7.70 | > 7.70
2 | CC(C)NS(=O)(=O)c1ccccc1Nc1nc(Nc2ccc(N3CCOCC3)cc2F)nc2c1CCN2 [Example 55, 2-(2-(2-fluoro-4-morpholinophenylamino)-6,7-dihydro-5H-pyrrolo[2,3-d]pyrimidin-4-ylamino)-N-isopropylbenzenesulfonamide] | > 7.70 | > 7.70
3 | COc1cc(N2CCS(=O)(=O)CC2)ccc1Nc1nc2c(c(Nc3ccccc3S(=O)(=O)NC(C)C)n1)CCN2 [Example 87, 2-(2-(4-(4-(S,S-dioxothio)piperidin-1-yl)-2-methoxyphenylamino)-6,7-dihydro-5H-pyrrolo[2,3-d]pyrimidin-4-ylamino)-N-isopropylbenzenesulfonamide] | > 7.70 | > 7.70
4 | COc1cc(N2CCOCC2)ccc1Nc1nc2c(c(Nc3ccccc3S(=O)(=O)NCC3CC3)n1)C(C)(C)CN2 [Example 118, N-(cyclopropylmethyl)-2-(2-(2-methoxy-4-morpholinophenylamino)-5,5-dimethyl-6,7-dihydro-5H-pyrrolo[2,3-d]pyrimidin-4-ylamino)benzenesulfonamide] | > 7.30 | > 7.30
5 | COc1cc(N2CCC(N3CCNCC3)CC2)ccc1Nc1nc2c(c(Nc3ccccc3S(=O)(=O)NC(C)C)n1)CCN2 [Example 97, N-isopropyl-2-(2-(2-methoxy-4-(4-(piperazin-1-yl)piperidin-1-yl)phenylamino)-6,7-dihydro-5H-pyrrolo[2,3-d]pyrimidin-4-ylamino)benzenesulfonamide] | > 7.00 | > 6.30
6 | COCCNS(=O)(=O)c1ccccc1Nc1nc(Nc2ccc(N3CCOCC3)cc2OC)nc2c1C1(CC1)CN2 [Example 141, 2-(2′-(2-methoxy-4-morpholinophenylamino)-6′,7′-dihydrospiro[cyclopropane-1,5′-pyrrolo[2,3-d]pyrimidine]-4′-ylamino)-N-(2-methoxyethyl)benzenesulfonamide] | > 7.70 | > 7.70
7 | CNC(=O)c1ccccc1Nc1nc(Nc2ccc(N3CCOCC3)cc2OC)nc2c1CCN2 [Example 1, 2-(2-(2-methoxy-4-morpholinophenylamino)-6,7-dihydro-5H-pyrrolo[2,3-d]pyrimidin-4-ylamino)-N-methylbenzamide] | > 7.00 | > 7.00
8 | CCC(C)NS(=O)(=O)c1ccccc1Nc1nc(Nc2ccc(N3CCOCC3)cc2OC)nc2c1CCN2 (stereo not shown) [Example 44, N-sec-butyl-2-(2-(2-methoxy-4-morpholinophenylamino)-6,7-dihydro-5H-pyrrolo[2,3-d]pyrimidin-4-ylamino)benzenesulfonamide] | > 7.70 | > 7.70
9 | COc1cc(N2CCOCC2)ccc1Nc1nc2c(c(Nc3ccccc3C(=O)N3CCCC3)n1)C(C)(C)CN2 [Example 121, (2-(2-(2-methoxy-4-morpholinophenylamino)-5,5-dimethyl-6,7-dihydro-5H-pyrrolo[2,3-d]pyrimidin-4-ylamino)phenyl)(pyrrolidin-1-yl)methanone] | > 6.70 | > 6.70
10 | COc1cc(N2CCC(N3CCNCC3)CC2)ccc1Nc1nc2c(c(Nc3ccccc3P(C)(C)=O)n1)CCN2 [Example 163, N^4-(2-(dimethylphosphoryl)phenyl)-N^2-(2-methoxy-4-(4-(piperazin-1-yl)piperidin-1-yl)phenyl)-6,7-dihydro-5H-pyrrolo[2,3-d]pyrimidine-2,4-diamine] | > 7.00 | > 7.30
11 | COc1cc(N2CCC(N3CCCCC3)CC2)ccc1Nc1nc2c(c(Nc3ccccc3S(=O)(=O)NC(C)C)n1)CCN2 [Example 92, 2-(2-(4-(1,4′-bipiperidin-1′-yl)-2-methoxyphenylamino)-6,7-dihydro-5H-pyrrolo[2,3-d]pyrimidin-4-ylamino)-N-isopropylbenzenesulfonamide] | > 7.70 | > 7.70

Next, values leading:

Row | pIC50 [1] | pIC50 [2] | Structure (SMILES)
12 | > 6.70 | > 6.30 | COc1cc(N2CCOCC2)ccc1Nc1nc2c(c(Nc3ccc(F)c(F)c3)n1)C1(CC1)CN2 [Example 153, N^4′-(3,4-difluorophenyl)-N^2′-(2-methoxy-4-morpholinophenyl)-6′,7′-dihydrospiro[cyclopropane-1,5′-pyrrolo[2,3-d]pyrimidine]-2′,4′-diamine]
13 | > 7.70 | > 7.70 | COc1cc(N2CCOCC2)ccc1Nc1nc2c(c(Nc3ccccc3S(=O)(=O)N(C)C)n1)C(C)(C)CN2 [Example 111, 2-(2-(2-methoxy-4-morpholinophenylamino)-5,5-dimethyl-6,7-dihydro-5H-pyrrolo[2,3-d]pyrimidin-4-ylamino)-N,N-dimethylbenzenesulfonamide]
14 | > 7.70 | > 7.70 | COc1cc(N2CCOCC2)ccc1Nc1nc2c(c(Nc3ccccc3S(=O)(=O)NC(C)C)n1)C(C)(C)CN2 [Example 105, N-isopropyl-2-(2-(2-methoxy-4-morpholinophenylamino)-5,5-dimethyl-6,7-dihydro-5H-pyrrolo[2,3-d]pyrimidin-4-ylamino)benzenesulfonamide]
15 | > 7.30 | > 7.30 | CNC(=O)c1ccccc1Nc1nc(Nc2ccc(N3CCOCC3)cc2OC)nc2c1C(C)CN2 (racemic) [Example 23, (±)-2-(2-(2-methoxy-4-morpholinophenylamino)-5-methyl-6,7-dihydro-5H-pyrrolo[2,3-d]pyrimidin-4-ylamino)-N-methylbenzamide]
16 | > 6.70 | > 6.30 | COc1cc(N2CCOCC2)ccc1Nc1nc2c(c(Nc3ccccc3S(=O)(=O)NC3CCCC3)n1)C(C)(C)CN2 [Example 108, N-cyclopentyl-2-(2-(2-methoxy-4-morpholinophenylamino)-5,5-dimethyl-6,7-dihydro-5H-pyrrolo[2,3-d]pyrimidin-4-ylamino)benzenesulfonamide]
17 | > 7.70 | > 7.70 | CC(C)NC(C)c1ccc(Nc2nc3c(c(Nc4ccccc4S(=O)(=O)NC(C)C)n2)CCN3)cc1 (stereo not shown) [Example 72, N-isopropyl-2-(2-(4-(1-(isopropylamino)ethyl)phenylamino)-6,7-dihydro-5H-pyrrolo[2,3-d]pyrimidin-4-ylamino)benzenesulfonamide]
18 | > 7.30 | > 6.30 | COc1cc(N2CCOCC2)ccc1Nc1nc2c(c(Nc3ccccc3S(=O)(=O)NC3CCCCC3)n1)C(C)CN2 (racemic) [Example 29, (±)-N-cyclohexyl-2-(2-(2-methoxy-4-morpholinophenylamino)-5-methyl-6,7-dihydro-5H-pyrrolo[2,3-d]pyrimidin-4-ylamino)benzenesulfonamide]
19 | > 7.00 | < 5.70 | COc1cc(N2CCOCC2)ccc1Nc1nc2c(c(NCc3ccccc3N(C)S(C)(=O)=O)n1)CCN2 [Example 11, N-(2-((2-(2-methoxy-4-morpholinophenylamino)-6,7-dihydro-5H-pyrrolo[2,3-d]pyrimidin-4-ylamino)methyl)phenyl)-N-methylmethanesulfonamide]
20 | > 7.70 | > 7.70 | COc1cc(N2CCC(N(C)C)C2)ccc1Nc1nc2c(c(Nc3ccccc3S(=O)(=O)NC(C)C)n1)CCN2 (stereo not shown) [Example 89, 2-(2-(4-(3-(dimethylamino)pyrrolidin-1-yl)-2-methoxyphenylamino)-6,7-dihydro-5H-pyrrolo[2,3-d]pyrimidin-4-ylamino)-N-isopropylbenzenesulfonamide]
21 | > 7.70 | > 7.70 | COc1cc(N2CCOCC2)ccc1Nc1nc2c(c(Nc3ccccc3S(=O)(=O)NCC(C)C)n1)C1(CC1)CN2 [Example 137, N-isobutyl-2-(2′-(2-methoxy-4-morpholinophenylamino)-6′,7′-dihydrospiro[cyclopropane-1,5′-pyrrolo[2,3-d]pyrimidine]-4′-ylamino)benzenesulfonamide]
22 | > 6.00 | > 6.52 | CNC(=O)c1ccccc1Nc1nc(Nc2cc(OC)c(OC)c(OC)c2)nc2c1CCN2 [Example 21, N-methyl-2-(2-(3,4,5-trimethoxyphenylamino)-6,7-dihydro-5H-pyrrolo[2,3-d]pyrimidin-4-ylamino)benzamide]
23 | > 7.70 | > 7.70 | CC(C)NS(=O)(=O)c1ccccc1Nc1nc(Nc2ccc(N3CCOCC3)cc2)nc2c1CCN2 [Example 52, N-isopropyl-2-(2-(4-morpholinophenylamino)-6,7-dihydro-5H-pyrrolo[2,3-d]pyrimidin-4-ylamino)benzenesulfonamide]
24 | > 7.70 | < 6.00 | COc1cc(N2CCOCC2)ccc1Nc1nc(NCc2ccccc2N(C)S(C)(=O)=O)c2c(n1)NCC2C (racemic) [Example 32, (±)-N-(2-((2-(2-methoxy-4-morpholinophenylamino)-5-methyl-6,7-dihydro-5H-pyrrolo[2,3-d]pyrimidin-4-ylamino)methyl)phenyl)-N-methylmethanesulfonamide]
25 | > 7.70 | > 7.70 | CC(C)NS(=O)(=O)c1ccccc1Nc1nc(Nc2ccc(C(=O)N(C)C)cc2)nc2c1CCN2 [Example 62, 4-(4-(2-(N-isopropylsulfamoyl)phenylamino)-6,7-dihydro-5H-pyrrolo[2,3-d]pyrimidin-2-ylamino)-N,N-dimethylbenzamide]
26 | > 6.70 | > 6.30 | COc1cc(N2CCOCC2)ccc1Nc1nc2c(c(Nc3ccccc3S(=O)(=O)Nc3ccccc3)n1)C(C)(C)CN2 [Example 116, 2-(2-(2-methoxy-4-morpholinophenylamino)-5,5-dimethyl-6,7-dihydro-5H-pyrrolo[2,3-d]pyrimidin-4-ylamino)-N-phenylbenzenesulfonamide]
